# Measurements taken from patent publication US20130296441A1, “Anti-Obesity Properties of Pterostilbene” (priority 2012, published 2013).
# Where two headings read alike, the source gives them in different places. Marks after values point to notes of the source that are not given here.
# Columns and labels:
# [1] = Serum and tissue levels of pterostilbene by GC-MS; assay type: in vivo, rat; conditions: for concentration at 6 weeks: male, Wistar, rat, oral
# Description: (§1) The experiment was conducted with twenty seven male Wistar rats with an initial body weight of 180±2 grams purchased from Harlan Ibérica (Barcelona, Spain), and took place in accordance with the University of the Basque Country's guide for the care and use of laboratory animals (Reference protocol approval CUEID CEBA/30/2010). The rats were individually housed in polycarbonate metabolic cages (Techniplast Gazzada, Guguggiate, Italy) and placed in an air-conditioned room (22±2° C.) with a 12 h light-dark cycle. After a 6-day adaptation period, rats were randomly divided in 3 dietary groups of nine animals each, and fed on a commercial obesogenic diet, high in sucrose (20.0%) and fat (22.5%) (Harlan Iberica, TD.06415). Pterostilbene was added to the diet. Rats in the pterostilbene groups received 15 mg/kg body weight/d (PT15 group) or 30 mg/kg body weight/d (PT30 group). All animals had free access to food and water. Food intake and body weight were daily measured.
# Extraction of pterostilbene in the serum was according to published procedure (Kotani et al. 2003. J. Chromatogr. B. 788:269-275), with modifications. Serum from −80° C. storage was thawed on ice. To 50 μL serum was added 15 μL of β-glucuronidase (from E. coli, Type IX-A, Sigma-Aldrich, St. Louis, Mo., USA; 250 U/15 mL sodium phosphate buffer, 0.1M, pH 6.8) and 15 μL of sulfatase (from Abalone Entrails, Type VIII, Sigma-Aldrich, St. Louis, Mo., USA; 20 U/15 mL sodium phosphate buffer, 0.1M, pH 6.8), then vortex-mixed. This mixture was incubated for 20 hr at 37° C. while shaking at 750 rpm, cooled to room temperature, then partitioned with ethyl acetate (75 μL×3). The ethyl acetate layers were combined and dried under nitrogen. The dried sample was derivatized with 40 μL of N,O-bis[trimethylsilyl]-trifluoroacetamide: dimethyl-formamide (BSTFA:DMF, 1:1; Pierce Biotechnology, Inc., Rockford, Ill.), heated at 70° C. for 40 min and used for the analysis of pterostilbene by gas chromatography-mass spectrometry (GC-MS).
# Pterostilbene in liver and muscle was extracted following published procedure (Hou et al. 2011. Planta Med. 77:455-460), with minor modifications. For liver, 100 mg fresh tissues were homogenized in 1 mL saline solution (0.9% NaCl in H2O). For muscle, 100 mg lyophilized tissue was homogenized in 1 mL sodium acetate buffer, pH 5. To the homogenates was added 300 μL enzyme solution (793.67 U/mL sulfatase and 666.66 U/mL β-glucuronidase in sodium acetate buffer, pH 5), vortex-mixed, and incubated at 37° C. for 16 hr while shaking at 750 rpm. To this mixture was added 100 μL of 0.1N HCl, then partitioned with ethyl acetate (800 μL×2). The ethyl acetate layers were combined, then dried under nitrogen. The dried sample was derivatized with BSTFA:DMF under the same conditions used for the analysis of pterostilbene in serum.
# For the analysis of pterostilbene in epididymis and subcutaneous tissues, 100 mg of lyophilized tissue was homogenized in 300 μL of sodium acetate buffer, then sonicated for 30 min. To the homogenate was added 300 μl enzyme solution (793.67 U/mL sulfatase and 1333.33 U/mL β-glucuronidase in sodium acetate buffer, pH5) vortex-mixed, and incubated at 37° C., with shaking (750 rpm), for 16 hours. After incubation, 500 μl ice-cold acetonitrile was added, vortex-mixed for 1 min, then centrifuged at 800 rpm (Savant SpeedVac, model number SPD121P-120) for 20 min. The clear supernatant was collected, and again treated with 500 μl ice-cold acetonitrile, vortex-mixed and then centrifuged at 800 rpm for 20 min. The supernatant was then dried under a stream of nitrogen, then derivatized with BSTFA:DMF using the same conditions as in the analysis of pterostilbene in serum.
# GC-MS analysis of pterostilbene in serum and tissues was performed using a J&W DB-5 capillary column (0.25 mm internal diameter, 0.25 μm film thickness, 30 m length; Agilent Technologies, Foster City, Calif.) on a JEOL GCMate II Instrument (JEOL USA Inc., Peabody, Mass.). […]
# [2] = in vivo; cited from earlier work
# [3] = system: male Wistar rats fed obesogenic diet high in sucrose and fat; experiment: Body weight, food intake, adipose tissue and muscle weights in rats fed an obesogenic diet with pterostilbene for 6 weeks; assay type: in vivo, rat; conditions: for decrease in total adipose tissue mass: versus control; for Adipose Tissue Weight, Epididymal / Adipose Tissue Weight, Interscapular Brown / Adipose Tissue Weight, Mesenteric / Adipose Tissue Weight, Perirenal / Adipose Tissue Weight, Subcutaneous / Adipose Tissue Weight, Total Fat Depots / Body Weight Increase / Food Intake / Final Body Weight: mean ± SEM; for Final Body Weight: n = 9, in g
# Description: as §1
# At the end of the 6-week experimental period, animals were sacrificed, under anaesthesia (chloral hydrate), by cardiac exsanguination. White adipose tissue from different anatomical locations (perirenal, epididymal, mesenteric and subcutaneous) and liver were dissected, weighed and immediately frozen.
# mice = mice fed 28 days at doses up to 3000 mg/kg body weight/d; cited from earlier work
# [4] = PT15: 15 mg/kg body weight/d in diet
# [5] = PT30: 30 mg/kg body weight/d in diet
smiles,measurement,setting,value
COc1cc(/C=C/c2ccc(O)cc2)cc(OC)c1 [pterostilbene],Muscle level of pterostilbene,"[1]; PT15: 15 mg/kg body weight/d in diet, 6 weeks",Not Detected
same,concentration at 6 weeks,"[1]; epididymis, PT15: 15 mg/kg body weight/d in diet, dry weight, n = 8, read-out: Epididymis level of pterostilbene",10.9 ± 5.3 ng/g
same,concentration at 6 weeks,"[1]; epididymis, PT30: 30 mg/kg body weight/d in diet, dry weight, n = 8, read-out: Epididymis level of pterostilbene",30.7 ± 11 ng/g
same,concentration at 6 weeks,"[1]; liver, PT15: 15 mg/kg body weight/d in diet, fresh weight, n = 8, read-out: Liver level of pterostilbene",308 ± 117 ng/g
same,concentration at 6 weeks,"[1]; liver, PT30: 30 mg/kg body weight/d in diet, fresh weight, n = 6, read-out: Liver level of pterostilbene",726 ± 112 ng/g
same,concentration at 6 weeks,"[1]; muscle, PT30: 30 mg/kg body weight/d in diet, dry weight, n = 8, read-out: Muscle level of pterostilbene",9.1 ± 2 ng/g
same,concentration at 6 weeks,"[1]; serum, PT15: 15 mg/kg body weight/d in diet, after glucuronidase/sulfatase hydrolysis, n = 8, read-out: Serum level of pterostilbene",384 ± 54.7 ng/mL
same,concentration at 6 weeks,"[1]; serum, PT30: 30 mg/kg body weight/d in diet, after glucuronidase/sulfatase hydrolysis, n = 6, read-out: Serum level of pterostilbene",789 ± 246 ng/mL
same,concentration at 6 weeks,"[1]; subcutaneous tissue, PT15: 15 mg/kg body weight/d in diet, dry weight, n = 7, read-out: Subcutaneous tissue level of pterostilbene",20.5 ± 13.7 ng/g
same,concentration at 6 weeks,"[1]; subcutaneous tissue, PT30: 30 mg/kg body weight/d in diet, dry weight, n = 7, read-out: Subcutaneous tissue level of pterostilbene",35.4 ± 7.7 ng/g
same,half-life,[2],approximately 2 hr
same,decrease in total adipose tissue mass,[3]; PT15: 15 mg/kg BW/d,15.1%
same,"Adipose Tissue Weight, Epididymal",[3]; [4],10.5 ± 0.9 g
same,"Adipose Tissue Weight, Interscapular Brown",[3]; [4],1.01 ± 0.23 g
same,"Adipose Tissue Weight, Mesenteric",[3]; [4],5.2 ± 0.4^ab g
same,"Adipose Tissue Weight, Perirenal",[3]; [4],12.0 ± 1.1^ab g
same,"Adipose Tissue Weight, Subcutaneous",[3]; [4],12.6 ± 1.2^b g
same,"Adipose Tissue Weight, Total Fat Depots",[3]; [4],40.3 ± 3.0^b g
same,Body Weight Increase,[3]; [4],206 ± 9 g
same,Food Intake,[3]; [4],17.7 ± 0.5 g/day
same,Final Body Weight,[3]; [4],382 ± 5
same,decrease in total adipose tissue mass,[3]; PT30: 30 mg/kg BW/d,22.9%
same,"Adipose Tissue Weight, Epididymal",[3]; [5],10.5 ± 1.1 g
same,"Adipose Tissue Weight, Interscapular Brown",[3]; [5],0.75 ± 0.05 g
same,"Adipose Tissue Weight, Mesenteric",[3]; [5],4.8 ± 0.5^b g
same,"Adipose Tissue Weight, Perirenal",[3]; [5],11.2 ± 1.0^b g
same,"Adipose Tissue Weight, Subcutaneous",[3]; [5],12.7 ± 1.6^b g
same,"Adipose Tissue Weight, Total Fat Depots",[3]; [5],36.6 ± 3.5^b g
same,Body Weight Increase,[3]; [5],200 ± 6 g
same,Food Intake,[3]; [5],17.5 ± 0.3 g/day
same,Final Body Weight,[3]; [5],382 ± 5
same,toxic or adverse biochemical effects compared to controls,mice,no significant toxic or adverse biochemical effects
